Measured values published in ChEMBL document CHEMBL1201862, “PubChem BioAssay data set” (2004).
The source made the active and inactive calls.

Columns and labels:
Paired box protein Pax-8 = Paired box protein Pax-8 (Homo sapiens, UniProt Q06710); test: inhibitors of PAX8-driven TPO luciferase reporter, dose response, RMG-I cells, cherry-pick (AID 687027); assay type: functional, cell-based;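 further: luciferase reporter driven by Pax8 target thyroperoxidase promoter measured by SteadyGlo luminescence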
[1] = NIH:OVCAR-3 ovarian cancer cell cytotoxicity, dose response, PAX8 inhibitor project, plate reader, dry powder samples (AID 743044); assay type: functional, cell-based
[2] = cytotoxicity in OVCAR8 ovarian cancer cells, dose response, PAX8 project, cell-based, plate reader, dry powder samples (AID 743197); assay type: functional; settings: OVCAR-8
[3] = target: T1, Sentrin-specific protease 1 (Homo sapiens, UniProt Q9P0U3); test: potency of human SENP1 inhibitors, dose response, biochemical, kinetic FRET (AID 651697); assay type: functional; settings: read-out: IC50_Mean
T1 sequence (Q9P0U3 whole entry): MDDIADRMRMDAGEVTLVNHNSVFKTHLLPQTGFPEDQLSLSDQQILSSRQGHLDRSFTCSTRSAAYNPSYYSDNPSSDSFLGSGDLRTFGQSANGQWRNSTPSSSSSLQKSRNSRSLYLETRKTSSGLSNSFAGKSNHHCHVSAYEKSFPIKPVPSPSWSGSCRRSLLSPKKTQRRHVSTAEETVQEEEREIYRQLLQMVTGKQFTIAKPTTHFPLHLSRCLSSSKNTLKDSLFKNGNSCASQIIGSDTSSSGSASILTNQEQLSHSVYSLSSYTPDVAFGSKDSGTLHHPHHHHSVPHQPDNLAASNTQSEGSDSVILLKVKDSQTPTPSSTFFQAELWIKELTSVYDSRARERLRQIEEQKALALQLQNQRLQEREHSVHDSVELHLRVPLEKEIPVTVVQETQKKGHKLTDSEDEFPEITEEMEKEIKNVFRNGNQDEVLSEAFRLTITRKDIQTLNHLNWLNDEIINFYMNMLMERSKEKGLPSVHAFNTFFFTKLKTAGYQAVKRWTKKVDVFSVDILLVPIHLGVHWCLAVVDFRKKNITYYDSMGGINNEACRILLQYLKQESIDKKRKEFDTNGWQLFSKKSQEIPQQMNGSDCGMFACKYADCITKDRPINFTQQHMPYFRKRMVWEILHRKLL

[4] = target: T1, Sentrin-specific protease 1; test: Dose response confirmation of small molecule inhibitors of the catalytic domain of the SUMO protease, SENP1 in a FRET assay.; assay type: functional; settings: read-out: IC50_Mean
[5] = target: T2, Methionyl-tRNA synthetase, putative (Trypanosoma brucei brucei, UniProt Q38C91); assay type: functional, Trypanosoma brucei brucei strain 927/4 GUTat10.1
T2 sequence (Q38C91 whole entry): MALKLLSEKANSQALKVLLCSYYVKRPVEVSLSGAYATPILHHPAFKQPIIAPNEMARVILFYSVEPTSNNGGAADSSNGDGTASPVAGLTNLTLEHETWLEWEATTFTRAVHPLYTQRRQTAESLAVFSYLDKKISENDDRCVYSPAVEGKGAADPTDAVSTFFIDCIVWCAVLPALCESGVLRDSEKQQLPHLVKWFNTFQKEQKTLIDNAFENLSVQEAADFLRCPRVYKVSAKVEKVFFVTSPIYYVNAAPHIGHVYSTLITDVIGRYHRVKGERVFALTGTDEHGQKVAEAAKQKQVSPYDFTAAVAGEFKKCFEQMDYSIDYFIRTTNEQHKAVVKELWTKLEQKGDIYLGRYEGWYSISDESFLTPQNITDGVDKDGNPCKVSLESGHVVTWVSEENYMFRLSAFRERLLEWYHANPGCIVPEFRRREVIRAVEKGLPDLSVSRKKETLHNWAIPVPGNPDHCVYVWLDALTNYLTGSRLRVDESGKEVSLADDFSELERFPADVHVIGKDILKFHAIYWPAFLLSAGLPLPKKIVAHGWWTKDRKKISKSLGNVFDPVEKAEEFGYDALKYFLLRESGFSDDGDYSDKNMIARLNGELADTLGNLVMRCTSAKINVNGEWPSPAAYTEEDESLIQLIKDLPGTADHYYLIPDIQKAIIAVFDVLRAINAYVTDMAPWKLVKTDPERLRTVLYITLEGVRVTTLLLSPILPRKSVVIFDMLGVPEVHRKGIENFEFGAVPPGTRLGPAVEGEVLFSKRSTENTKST

[6] = Counterscreen for inhibitors of Trypanosoma brucei methionyl tRNA synthetase (MetRS): Luminescence-based cell-based high throughput dose response assay to identify compounds that are cytotoxic to Jurkat human T lymphocyte cells.; assay type: functional
[7] = target: T2, Methionyl-tRNA synthetase, putative; assay type: functional, Trypanosoma brucei brucei strain 927/4 GUTat10.1; remark: listed apart in the source
[8] = target: Nuclear receptor subfamily 5 group A member 2 (Homo sapiens, UniProt O00482); assay type: functional, cell-based;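 further: HEK293T cells transfected with LRH-1 and a StAR promoter luciferase reporter; potency for inhibitors that lower LRH-1 driven reporter light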
Sequence of Nuclear receptor subfamily 5 group A member 2 (O00482 whole entry): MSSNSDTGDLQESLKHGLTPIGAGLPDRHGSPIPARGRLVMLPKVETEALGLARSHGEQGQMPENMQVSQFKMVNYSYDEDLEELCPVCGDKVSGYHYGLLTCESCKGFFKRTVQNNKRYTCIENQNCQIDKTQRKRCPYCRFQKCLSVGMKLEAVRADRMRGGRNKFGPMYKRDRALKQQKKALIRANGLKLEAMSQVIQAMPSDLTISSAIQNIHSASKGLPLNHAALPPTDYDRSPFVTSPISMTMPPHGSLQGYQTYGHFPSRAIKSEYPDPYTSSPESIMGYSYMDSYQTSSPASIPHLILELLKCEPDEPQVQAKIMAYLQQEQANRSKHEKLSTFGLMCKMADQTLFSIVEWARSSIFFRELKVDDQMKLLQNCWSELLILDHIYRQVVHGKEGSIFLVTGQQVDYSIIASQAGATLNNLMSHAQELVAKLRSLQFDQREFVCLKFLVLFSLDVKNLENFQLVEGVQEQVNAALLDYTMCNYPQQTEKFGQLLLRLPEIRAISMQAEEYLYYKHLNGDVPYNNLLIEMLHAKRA

Steroidogenic factor 1 = Steroidogenic factor 1 (Homo sapiens, UniProt Q13285); test: Counterscreen for inverse agonists of the liver receptor homolog-1 (LRH-1; NR5A2): Luminescence-based cell-based high throughput dose response assay to identify inverse agonists of the Steroidogenic Factor 1 Nuclear Receptor (SF1; NR5A1).; assay type: functional
Sequence of Steroidogenic factor 1 (Q13285 whole entry): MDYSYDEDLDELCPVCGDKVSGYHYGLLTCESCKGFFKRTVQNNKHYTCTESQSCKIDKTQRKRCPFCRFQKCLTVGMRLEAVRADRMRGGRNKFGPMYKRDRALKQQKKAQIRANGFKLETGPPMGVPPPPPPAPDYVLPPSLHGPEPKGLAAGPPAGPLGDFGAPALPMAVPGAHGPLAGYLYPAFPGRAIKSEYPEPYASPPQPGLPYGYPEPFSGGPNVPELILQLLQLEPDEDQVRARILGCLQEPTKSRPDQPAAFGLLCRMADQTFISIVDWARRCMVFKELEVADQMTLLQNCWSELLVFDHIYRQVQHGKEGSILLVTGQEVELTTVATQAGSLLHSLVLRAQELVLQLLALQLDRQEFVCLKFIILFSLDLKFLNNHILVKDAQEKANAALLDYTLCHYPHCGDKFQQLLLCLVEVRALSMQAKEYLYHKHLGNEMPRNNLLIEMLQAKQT

[9] = StAR promoter reporter inhibition counter-screen, dose response, counter-screen for LRH-1 inverse agonist project, cell-based, luminescence, luciferase reporter (AID 651969); assay type: functional
[10] = target: T3, Carboxy-terminal domain RNA polymerase II polypeptide A small phosphatase 1 (Homo sapiens, UniProt Q9GZU7); test: inhibitors of CTDSP1, concentration-response testing, biochemical assay, absorbance-based, actives from ultra-high-throughput screening (AID 540297); assay type: functional
T3 sequence (Q9GZU7 whole entry): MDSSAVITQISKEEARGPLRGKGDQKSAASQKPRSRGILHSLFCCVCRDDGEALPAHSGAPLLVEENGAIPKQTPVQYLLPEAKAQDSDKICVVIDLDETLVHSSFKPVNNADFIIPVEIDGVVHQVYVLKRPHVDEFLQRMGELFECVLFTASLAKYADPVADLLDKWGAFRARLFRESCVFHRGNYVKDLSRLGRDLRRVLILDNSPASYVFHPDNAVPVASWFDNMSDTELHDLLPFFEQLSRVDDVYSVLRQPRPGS

[11] = target: T4, Low molecular weight phosphotyrosine protein phosphatase (Homo sapiens, UniProt P24666); assay type: functional; settings: read-out: IC50_Mean
T4 sequence (P24666 whole entry): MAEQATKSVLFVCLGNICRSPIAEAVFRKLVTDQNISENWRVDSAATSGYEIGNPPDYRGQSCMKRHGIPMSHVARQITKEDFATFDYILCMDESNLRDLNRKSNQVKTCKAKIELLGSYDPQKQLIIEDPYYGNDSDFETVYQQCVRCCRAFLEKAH

[12] = target: T4, Low molecular weight phosphotyrosine protein phosphatase; assay type: functional; settings: read-out: IC50_Mean; remark: listed apart in the source
Beta-galactosidase = Beta-galactosidase (Escherichia coli, UniProt Q8VNN2); test: Dose response counterscreen for EBI2 assay utilizing the enzyme, b-galactosidase.; assay type: functional
Sequence of Beta-galactosidase (Q8VNN2 whole entry, the tested form may be a part): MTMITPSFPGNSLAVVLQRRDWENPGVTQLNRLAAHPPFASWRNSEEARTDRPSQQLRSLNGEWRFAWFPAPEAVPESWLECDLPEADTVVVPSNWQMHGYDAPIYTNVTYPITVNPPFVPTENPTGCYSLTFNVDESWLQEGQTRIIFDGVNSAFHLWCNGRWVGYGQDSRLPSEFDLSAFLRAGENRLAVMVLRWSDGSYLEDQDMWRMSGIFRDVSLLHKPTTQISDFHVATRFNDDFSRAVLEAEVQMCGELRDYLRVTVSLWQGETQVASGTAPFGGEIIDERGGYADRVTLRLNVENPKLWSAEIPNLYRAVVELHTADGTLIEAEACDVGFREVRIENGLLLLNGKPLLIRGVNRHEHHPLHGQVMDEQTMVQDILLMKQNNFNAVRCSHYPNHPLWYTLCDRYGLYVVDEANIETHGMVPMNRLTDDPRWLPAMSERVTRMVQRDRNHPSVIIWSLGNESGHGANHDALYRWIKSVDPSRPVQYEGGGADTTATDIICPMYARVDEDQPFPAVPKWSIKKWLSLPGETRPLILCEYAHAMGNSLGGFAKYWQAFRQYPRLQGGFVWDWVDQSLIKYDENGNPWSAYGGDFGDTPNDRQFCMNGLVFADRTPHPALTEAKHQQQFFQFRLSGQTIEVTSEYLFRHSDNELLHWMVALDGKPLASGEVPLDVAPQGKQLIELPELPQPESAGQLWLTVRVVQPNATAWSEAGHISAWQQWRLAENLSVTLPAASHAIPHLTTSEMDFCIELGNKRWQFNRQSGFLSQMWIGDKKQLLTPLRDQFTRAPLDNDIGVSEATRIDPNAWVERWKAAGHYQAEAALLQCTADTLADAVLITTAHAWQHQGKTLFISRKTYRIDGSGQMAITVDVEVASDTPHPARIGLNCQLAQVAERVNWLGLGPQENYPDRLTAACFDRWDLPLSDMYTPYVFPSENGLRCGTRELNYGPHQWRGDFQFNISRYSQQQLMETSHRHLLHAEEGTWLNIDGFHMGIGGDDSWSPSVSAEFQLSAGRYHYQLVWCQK

[13] = target: T5, RNA-binding protein pos-1 (Caenorhabditis elegans, UniProt G5EF15); test: inhibitors of POS-1/mex-3 RNA binding, dose response, biochemical, fluorescence polarization (AID 1964);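 further: purified POS-1 fused to maltose binding protein made in E. coli; potency of compounds blocking POS-1 binding to fluorescent RNA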
T5 sequence (G5EF15 whole entry): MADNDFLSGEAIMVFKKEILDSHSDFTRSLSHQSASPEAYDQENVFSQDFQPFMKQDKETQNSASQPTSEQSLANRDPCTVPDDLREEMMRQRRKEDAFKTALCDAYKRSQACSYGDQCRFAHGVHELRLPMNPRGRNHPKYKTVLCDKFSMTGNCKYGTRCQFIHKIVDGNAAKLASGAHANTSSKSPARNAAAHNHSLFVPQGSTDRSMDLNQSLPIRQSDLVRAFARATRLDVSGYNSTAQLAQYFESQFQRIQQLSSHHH

[14] = target: T6, Zinc finger protein mex-5 (Caenorhabditis elegans, UniProt Q9XUB2); test: MEX-5/TCR-2 RNA interaction inhibitors, dose response, biochemical, C. elegans, fluorescence polarization (AID 1960)
T6 sequence (Q9XUB2 whole entry): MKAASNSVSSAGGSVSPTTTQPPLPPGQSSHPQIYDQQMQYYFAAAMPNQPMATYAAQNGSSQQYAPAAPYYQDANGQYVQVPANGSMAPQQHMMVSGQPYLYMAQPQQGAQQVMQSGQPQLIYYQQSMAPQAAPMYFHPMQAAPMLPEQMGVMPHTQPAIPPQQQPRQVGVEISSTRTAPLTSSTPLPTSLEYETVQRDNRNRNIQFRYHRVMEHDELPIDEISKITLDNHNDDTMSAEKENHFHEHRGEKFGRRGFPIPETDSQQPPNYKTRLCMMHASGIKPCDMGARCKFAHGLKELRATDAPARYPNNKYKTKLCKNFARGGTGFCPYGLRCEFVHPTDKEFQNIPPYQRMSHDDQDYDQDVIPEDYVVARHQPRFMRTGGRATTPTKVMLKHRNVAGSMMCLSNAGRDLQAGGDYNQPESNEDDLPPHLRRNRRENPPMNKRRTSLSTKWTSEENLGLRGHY

[15] = miR-122 activators in hepatoma reporter cells, dose response, cell-based, Huh7 psiCHECK-miR122, Renilla luciferase, cherry-picked (AID 651956); assay type: functional;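 further: huh7 hepatoma cells stably carrying a psiCHECK-2 miR-122 sensor plasmid; renilla luciferase signal reporting endogenous miR-122 activity after 48 h compound exposure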
[16] = target: Photoreceptor-specific nuclear receptor (Homo sapiens, UniProt Q9Y5X4); assay type: functional, cell-based;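 further: CHO-S cells with Gal4-NCOR and VP16-NR2E3 two-hybrid luciferase reporter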
Sequence of Photoreceptor-specific nuclear receptor (Q9Y5X4 whole entry, the tested form may be a part): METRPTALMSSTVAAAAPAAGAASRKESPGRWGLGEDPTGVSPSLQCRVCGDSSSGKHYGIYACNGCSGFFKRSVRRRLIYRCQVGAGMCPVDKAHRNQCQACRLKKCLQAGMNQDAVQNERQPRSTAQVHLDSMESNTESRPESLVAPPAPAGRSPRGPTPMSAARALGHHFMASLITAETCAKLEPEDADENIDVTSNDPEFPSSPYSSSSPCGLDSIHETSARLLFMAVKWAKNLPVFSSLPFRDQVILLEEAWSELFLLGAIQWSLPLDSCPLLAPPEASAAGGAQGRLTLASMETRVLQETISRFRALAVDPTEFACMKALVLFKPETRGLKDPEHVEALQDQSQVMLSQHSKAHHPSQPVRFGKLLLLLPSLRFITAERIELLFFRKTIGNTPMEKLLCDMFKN

Fatty acid synthase [17] = target: T7, Fatty acid synthase (Homo sapiens, UniProt P49327); test: FAS thioesterase domain inhibitors, dose response, biochemical, endpoint fluorescence intensity, uHTS hits (AID 624327); assay type: functional;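 further: fluorescence from hydrolysis of an O-methyl fluorescein acyl ester substrate by the enzyme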
T7 sequence (P49327 whole entry, the tested form may be a part): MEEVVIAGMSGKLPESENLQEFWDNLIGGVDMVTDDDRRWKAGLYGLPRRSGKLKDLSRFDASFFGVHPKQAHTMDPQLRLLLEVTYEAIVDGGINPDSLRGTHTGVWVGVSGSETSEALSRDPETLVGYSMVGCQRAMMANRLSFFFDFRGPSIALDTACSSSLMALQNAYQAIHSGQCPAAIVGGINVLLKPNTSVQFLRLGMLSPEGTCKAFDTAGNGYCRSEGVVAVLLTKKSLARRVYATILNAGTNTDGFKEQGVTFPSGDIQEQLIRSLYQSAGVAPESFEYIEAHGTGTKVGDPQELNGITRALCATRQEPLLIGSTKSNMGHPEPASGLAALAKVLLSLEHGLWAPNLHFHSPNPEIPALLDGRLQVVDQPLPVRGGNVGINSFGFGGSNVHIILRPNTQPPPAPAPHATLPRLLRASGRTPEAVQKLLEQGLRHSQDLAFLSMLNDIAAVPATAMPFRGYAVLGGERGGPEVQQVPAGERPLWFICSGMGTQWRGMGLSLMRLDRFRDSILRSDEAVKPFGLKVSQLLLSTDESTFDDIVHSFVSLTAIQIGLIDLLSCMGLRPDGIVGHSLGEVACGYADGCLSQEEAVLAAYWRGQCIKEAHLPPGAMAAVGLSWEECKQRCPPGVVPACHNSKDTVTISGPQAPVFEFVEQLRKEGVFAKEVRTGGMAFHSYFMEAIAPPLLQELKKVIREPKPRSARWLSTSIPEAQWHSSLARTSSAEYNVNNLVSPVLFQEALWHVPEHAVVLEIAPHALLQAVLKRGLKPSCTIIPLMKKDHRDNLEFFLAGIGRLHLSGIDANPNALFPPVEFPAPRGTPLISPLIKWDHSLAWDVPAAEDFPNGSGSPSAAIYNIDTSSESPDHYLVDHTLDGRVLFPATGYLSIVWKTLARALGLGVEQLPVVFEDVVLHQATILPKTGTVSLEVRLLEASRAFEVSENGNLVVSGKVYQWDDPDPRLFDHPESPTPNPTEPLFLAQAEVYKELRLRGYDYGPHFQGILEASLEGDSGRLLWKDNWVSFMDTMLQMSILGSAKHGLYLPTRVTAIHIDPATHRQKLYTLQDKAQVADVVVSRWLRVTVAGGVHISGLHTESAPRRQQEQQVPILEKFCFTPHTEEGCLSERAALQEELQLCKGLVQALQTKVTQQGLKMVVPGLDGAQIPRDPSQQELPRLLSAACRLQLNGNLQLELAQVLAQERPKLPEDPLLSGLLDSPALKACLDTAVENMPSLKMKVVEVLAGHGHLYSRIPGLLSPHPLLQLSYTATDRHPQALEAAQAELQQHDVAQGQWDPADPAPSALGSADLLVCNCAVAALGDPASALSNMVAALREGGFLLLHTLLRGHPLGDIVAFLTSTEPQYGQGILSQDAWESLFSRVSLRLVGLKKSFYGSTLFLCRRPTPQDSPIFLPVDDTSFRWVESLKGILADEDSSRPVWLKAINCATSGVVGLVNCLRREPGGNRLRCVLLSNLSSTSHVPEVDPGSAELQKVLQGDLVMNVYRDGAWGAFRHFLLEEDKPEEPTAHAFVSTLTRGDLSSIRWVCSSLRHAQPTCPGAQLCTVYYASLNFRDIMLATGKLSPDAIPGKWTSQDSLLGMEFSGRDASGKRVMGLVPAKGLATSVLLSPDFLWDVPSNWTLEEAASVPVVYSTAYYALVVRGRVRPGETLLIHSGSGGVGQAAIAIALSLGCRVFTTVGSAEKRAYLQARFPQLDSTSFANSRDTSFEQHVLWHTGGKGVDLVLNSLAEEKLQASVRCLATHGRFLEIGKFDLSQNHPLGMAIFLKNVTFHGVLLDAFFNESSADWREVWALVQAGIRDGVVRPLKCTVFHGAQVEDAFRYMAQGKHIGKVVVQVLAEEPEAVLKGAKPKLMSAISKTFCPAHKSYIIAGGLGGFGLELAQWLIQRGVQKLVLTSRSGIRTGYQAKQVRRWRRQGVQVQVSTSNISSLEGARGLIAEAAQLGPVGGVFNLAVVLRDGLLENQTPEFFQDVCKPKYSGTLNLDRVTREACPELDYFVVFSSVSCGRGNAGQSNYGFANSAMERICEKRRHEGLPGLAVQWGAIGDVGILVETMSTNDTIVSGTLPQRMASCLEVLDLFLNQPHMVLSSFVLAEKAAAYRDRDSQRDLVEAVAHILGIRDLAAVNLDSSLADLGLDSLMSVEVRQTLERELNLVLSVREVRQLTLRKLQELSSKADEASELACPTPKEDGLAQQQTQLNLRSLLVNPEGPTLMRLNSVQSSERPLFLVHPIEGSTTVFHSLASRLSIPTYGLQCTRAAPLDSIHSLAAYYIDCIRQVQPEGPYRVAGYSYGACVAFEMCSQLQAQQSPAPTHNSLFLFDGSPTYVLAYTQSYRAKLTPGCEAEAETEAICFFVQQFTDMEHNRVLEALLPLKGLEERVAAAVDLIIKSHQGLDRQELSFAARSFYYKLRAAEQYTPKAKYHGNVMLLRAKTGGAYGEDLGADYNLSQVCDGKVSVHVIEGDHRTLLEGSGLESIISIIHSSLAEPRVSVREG

Fatty acid synthase [18] = target: T7, Fatty acid synthase; test: FAS thioesterase domain inhibitors, dose response, biochemical, kinetic fluorescence intensity (AID 624326); assay type: functional;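 further: rate of fluorescence rise from hydrolysis of a fluorogenic O-methyl fluorescein ester substrate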
[19] = inhibitors of intracellular T. cruzi replication, confirmation, NIH3T3 host cells, beta-gal luminescence (AID 2044); assay type: functional, cell-based;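 further: intracellular parasites grown in NIH/3T3 mouse fibroblasts as host cells; luminescent beta-galactosidase reporter signal from transgenic T. cruzi replicating inside host cells; inhibitors lower the luminescence signal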
[20] = cytotoxicity toward NIH3T3 fibroblasts, dose response, counter-screen, cell-based, ATP luminescence, mouse fibroblasts (AID 2010); assay type: functional;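 further: cells exposed to compound for about 90 hours before reading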
[21] = target: T8, Long-chain-fatty-acid--AMP ligase FadD28 (Mycobacterium tuberculosis, UniProt P9WQ59); test: Fluorescence polarization aasay to screen for inhibitors that compete for the binding of FadD28 to a bisubstrate Measured in Biochemical System Using Plate Reader - 2147-01_Inhibitor_Dose_CherryPick_Activity.; assay type: functional, Mycobacterium tuberculosis H37Rv
T8 sequence (P9WQ59 whole entry): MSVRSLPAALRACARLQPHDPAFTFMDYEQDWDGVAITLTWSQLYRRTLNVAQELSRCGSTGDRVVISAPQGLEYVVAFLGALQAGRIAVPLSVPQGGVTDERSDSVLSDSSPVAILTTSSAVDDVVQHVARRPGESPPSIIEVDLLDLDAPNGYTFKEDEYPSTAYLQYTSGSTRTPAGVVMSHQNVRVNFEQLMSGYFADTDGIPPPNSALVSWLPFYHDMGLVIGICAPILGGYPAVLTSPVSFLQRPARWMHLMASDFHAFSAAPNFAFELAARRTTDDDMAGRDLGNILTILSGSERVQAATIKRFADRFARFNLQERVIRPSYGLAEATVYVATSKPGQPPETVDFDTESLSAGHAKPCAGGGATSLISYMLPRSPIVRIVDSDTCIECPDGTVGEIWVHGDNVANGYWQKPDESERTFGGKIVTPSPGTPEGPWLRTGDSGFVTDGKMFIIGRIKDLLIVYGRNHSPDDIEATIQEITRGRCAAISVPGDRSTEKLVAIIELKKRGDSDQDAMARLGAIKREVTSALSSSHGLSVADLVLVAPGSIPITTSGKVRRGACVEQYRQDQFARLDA

## C[C@@H]1CCCCO[C@@H](CN(C)C(=O)Nc2ccc(C(F)(F)F)cc2)[C@H](C)CN([C@H](C)CO)C(=O)c2cc(NS(=O)(=O)c3ccc(F)cc3)ccc2O1
Paired box protein Pax-8
  AC50: 5.62 µM (active)
[1]
  AC50: 23.5 µM (active)
[2]
  AC50: > 70 µM (inactive)

## CN(C)C(=O)CSc1ccc(S(=O)(=O)N2CCCC2)cn1
[3]
  IC50: 12.9 µM (active)
[4]
  IC50: 20.7 µM (inactive)

## Cc1cc(C)n2c(Nc3c(C)cccc3C)c(-c3cccnc3)nc2n1
[3]
  IC50: 28.3 µM (inactive)
[4]
  IC50: 16.8 µM (active)

## O=C(CSc1n[nH]c2c3cc(F)ccc3nc-2n1)NCc1ccc(F)cc1
[5]
  IC50: 119 µM (inactive)
[6]
  IC50: 83.3 µM (inactive)
[7]
  IC50: 1.42 µM (active)

## O=[N+]([O-])c1cc(F)c(N2CCCCCC2)cc1N1CCNCC1
[8]
  IC50: 3.99 µM (active)
Steroidogenic factor 1
  IC50: 6.27 µM (active)
[9]
  IC50: 35 µM (inactive)

## O=C(CSc1nc(-c2ccccc2)nc2ccc(F)cc12)Nc1cccc(C(=O)O)c1
[10]
  IC50: 6.6 µM (active)
[11]
  IC50: 42.2 µM (inactive)
[12]
  IC50: 21.4 µM (inactive)

## COc1cc(OC)cc(C(=O)N2CCN(C(=O)COc3ccc4ccccc4c3)CC2)c1
Beta-galactosidase
  IC50: > 80 µM (inactive)

## CCC(C)N1CCN(C(=O)COc2ccc3ccccc3c2)CC1 (centres undefined)
Beta-galactosidase
  IC50: > 80 µM (inactive)

## Cc1ccc2cc(/C=C(\C#N)C(N)=O)c(N3CCCCC3)nc2c1
[13]
  EC50: 50.6 µM (active)
[14]
  EC50: 30.7 µM (inconclusive)
[3]
  IC50: 18.4 µM (active)
[4]
  IC50: 36.2 µM (inactive)

## Cc1ccc(C)c(OCCC(=O)Nc2cccc(S(=O)(=O)NC3=NCCCCC3)c2)c1
[5]
  IC50: 98.3 µM (inactive)
[6]
  IC50: 83.3 µM (inactive)
[7]
  IC50: 46.4 µM (inactive)

## C[C@@H]1CN([C@@H](C)CO)S(=O)(=O)c2ccc(C#CC3(O)CCCC3)cc2O[C@@H]1CN(C)C(=O)c1cccnc1
[15]
  AC50: 7.95 µM (active)

## CCCCCCCCCCCCN1[C@@H](CC(=O)O)c2cc(F)ccc2S1(=O)=O
[16]
  IC50: 4.28 µM (active)
Fatty acid synthase [17]
  IC50: 2.83 µM (active)
Fatty acid synthase [18]
  IC50: 2.62 µM (active)

## COC(=O)c1ccc(COc2ccc(/C=N/NC(N)=S)cc2)o1
[19]
  EC50: 1.39 µM (active)
[20]
  EC50: > 60 µM (not active)
[8]
  IC50: 9.77 µM (active)
[21]
  AC50: 3.63 µM (active)
Steroidogenic factor 1
  IC50: 1.97 µM (active)
[9]
  IC50: 35.9 µM (inactive)

## O=C(CN1C(=O)CCC1=O)Nc1ccc(Br)cc1
[8]
  IC50: 11.1 µM (inactive)
Steroidogenic factor 1
  IC50: 8.78 µM (active)
[9]
  IC50: 35.9 µM (inactive)

## Cc1ccc(/C=C/C(=O)N2CCC(Cc3ccccc3)CC2)cc1
Beta-galactosidase
  IC50: > 80 µM (inactive)
